Data as given in patent US20180371044A1, “PEPTIDOMIMETIC MACROCYCLES” (Aileron Therapeutics, Inc., priority 2015, published 2018).
pEC50: −log10 of the molar value. Where a SMILES comes first, the peptide text is derived from it. Bridges are numbered along the chain shown (N, C = ends). [ ]: non-standard residue; d: D form. NMeY = CN[C@@H](Cc1ccc(O)cc1)C(=O)O; S5 = C=CCCC[C@](C)(N)C(=O)O; Nle = CCCC[C@H](N)C(=O)O

Key:
GHRHR = molecular target: T1, GHRHR (Homo sapiens, UniProt Q02643); test: DiscoverX cAMP Hunter eXpress GHRHR CHO-K1 GPCR assay; format: cell-based; settings: for Selectivity: EC50 in VIPR1 CHO-K1 cells divided by EC50 in GHRHR CHO-K1 cells; for pEC50: GHRHR CHO-K1 cells, cAMP
T1 construct: host or cells: CHO-K1 (cAMP Hunter eXpress GHRHR CHO-K1 GPCR assay kit)
T1 sequence (Q02643 23-423): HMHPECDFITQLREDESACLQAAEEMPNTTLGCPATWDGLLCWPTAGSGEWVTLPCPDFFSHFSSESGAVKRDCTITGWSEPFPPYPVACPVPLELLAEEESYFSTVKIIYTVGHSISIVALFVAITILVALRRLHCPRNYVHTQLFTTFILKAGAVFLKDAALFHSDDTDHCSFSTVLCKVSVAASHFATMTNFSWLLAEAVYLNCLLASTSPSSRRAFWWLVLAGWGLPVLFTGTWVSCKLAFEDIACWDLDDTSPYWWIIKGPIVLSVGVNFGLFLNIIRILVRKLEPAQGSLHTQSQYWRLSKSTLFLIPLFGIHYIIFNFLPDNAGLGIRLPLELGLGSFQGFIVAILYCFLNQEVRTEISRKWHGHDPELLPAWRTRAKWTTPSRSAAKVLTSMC
Description: DiscoverX cAmP Hunter eXpress VIPRI CHO-K1 GPCR and GHRHR CHO-K1 GPCR assays kits were used. […] Following ligand stimulation, the functional status of the GPCR is monitored by measuring cellular cAMP levels using a homogeneous, gain of signal competitive immunoassay based on Enzyme Fragment Complementation (EFC). The amount of EFC is measured by analysis with a fluorescent plate reader.
DiscoverX™ cAmP Hunter eXpress VIPR1 CHO-K1 GPCR and GHRHR CHO-K1 GPCR assay kits were used. On the day before the assay, the DiscoverX™ cell lines were defrosted, plated into 384 well plates and allowed to incubate overnight. All the samples were diluted to 2 mM using 100% DMSO. The vials were sonicated and centrifuged to assure all peptides went into solution. The final volumes were small, 80-200 μl. An 80% purity and peptide content was assumed for all samples and dilutions were based on the molecular weights. On the day of the assay, the samples were diluted to 200 μM in water and then to 4 μM in DiscoverX™ assay buffer (supplemented with 0.1% BSA). Serial dilutions were performed on assay day, 16 dilutions from 1000 nM were run side by side in duplicate for each peptide for study. The assays were performed in the 384 well plates with the assistance of a CyBio™ Bi-Well 384 channel liquid handling robot. The samples were analyzed on a Tecan™ Ultra Evolution plate reader according to DiscoverX™ guidelines. The EC50 values were determined using GraphPad™ Prism software. The EC50 value is defined as the concentration of agonist that provokes a response halfway between the baseline and maximum response. […] The selectivity value is the concentration of agonist that provokes a response halfway between the baseline and maximum response in VIPR1 CHO-K1 cells divided by the concentration of agonist that provokes a response halfway between the baseline and maximum response in GHRHR CHO-K1 cells.

[1] = Solubility by measuring turbidity (OD600) in human plasma; format: physicochemical
Description: In some embodiments, a peptidomimetic macrocycle can be prepared based on solubility of the polypeptide, for example if the prepared peptidomimetic macrocycle is determined to be soluble based on visual examination of the turbidity of a solution of the polypeptide. In some embodiments, an aqueous solubility of the peptidomimetic macrocycle is determined by evaluating the turbidity of a solution comprising the peptidomimetic macrocycle. In some embodiments, a plasma solubility of the peptidomimetic macrocycle is determined by evaluating the turbidity of a solution comprising the peptidomimetic macrocycle.
Increasing amounts of SP-3 and SP-133 were added to human plasma. The OD600 of each of the solutions was then measured.

[2] = molecular target: T2, human GHRH receptor (hGHRHR) (Homo sapiens, UniProt Q02643); test: GHRHR agonism measured by cAMP (HTRF) in human 293 cells expressing hGHRHR; format: cell-based; settings: 30 min at RT;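 note: receptor expressed transiently or stably, cells stimulated in serum-free medium, EC50 from a non-linear dose-response fit, maximal response defined by reference GHRH stimulation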
T2 construct: expressed in transfected cells; host or cells: Human 293 cells
T2 sequence (Q02643 23-423): T1 sequence (Q02643 23-423)

[3] = molecular target: T3, VIPR1 (Vasointestinal Peptide Receptor 1) (Homo sapiens, UniProt P32241); test: DiscoverX cAMP Hunter eXpress VIPR1 CHO-K1 GPCR assay; format: cell-based; settings: VIPR1 CHO-K1 cells
T3 construct: host or cells: CHO-K1 (cAMP Hunter eXpress VIPR1 CHO-K1 GPCR assay kit)
T3 sequence (P32241 31-457): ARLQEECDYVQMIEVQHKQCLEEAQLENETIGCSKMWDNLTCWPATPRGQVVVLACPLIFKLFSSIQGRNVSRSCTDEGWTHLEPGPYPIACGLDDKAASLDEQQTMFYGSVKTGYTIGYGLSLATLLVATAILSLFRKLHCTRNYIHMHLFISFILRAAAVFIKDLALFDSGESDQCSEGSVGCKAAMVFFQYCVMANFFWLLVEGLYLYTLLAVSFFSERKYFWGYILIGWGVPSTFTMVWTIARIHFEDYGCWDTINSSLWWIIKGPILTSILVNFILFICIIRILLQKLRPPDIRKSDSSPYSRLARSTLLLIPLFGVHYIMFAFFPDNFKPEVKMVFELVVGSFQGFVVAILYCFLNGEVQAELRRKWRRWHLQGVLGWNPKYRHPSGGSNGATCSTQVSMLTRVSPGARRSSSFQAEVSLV
Text: DiscoverX cAmP Hunter eXpress VIPRI CHO-K1 GPCR and GHRHR CHO-K1 GPCR assays kits were used. The DiscoverX kits contain naturally coupled GPCR cell lines designed to detect GPCR signaling through second messenger activation. This signaling involves a membrane bound enzyme called adenylate cyclase. […] receptors modulate cAMP by either inhibiting or stimulating adenylate cyclase, respectively. The DiscoverX cell lines included in the kits utilize the natural coupling status of the GPCR to monitor activation of […] receptors. Following ligand stimulation, the functional status of the GPCR is monitored by measuring cellular cAMP levels using a homogeneous, gain of signal competitive immunoassay based on Enzyme Fragment Complementation (EFC). The amount of EFC is measured by analysis with a fluorescent plate reader.
On the day before the assay, the DiscoverX cell lines were defrosted, plated into 384 well plates and allowed to incubate overnight. All the samples were diluted to 2 mM using 100% DMSO. The vials were sonicated and centrifuged to assure all peptides went into solution. The final volumes were small, 80-200 μl. An 80% purity and peptide content was assumed for all samples and dilutions were based on the molecular weights. On the day of the assay, the samples were diluted to 200 μM in water and then to 4 μM in DiscoverX assay buffer (supplemented with 0.1% BSA). Serial dilutions were performed on assay day, 16 dilutions from 1000 nM were run side by side in duplicate for each peptide for study. The assays were performed in the 384 well plates with the assistance of a CyBio Bi-Well 384 channel liquid handling robot. The samples were analyzed on a Tecan Ultra Evolution plate reader according to DiscoverX guidelines. The EC50 values were determined using GraphPad Prism software. The EC50 value is defined as the concentration of agonist that provokes a response halfway between the baseline and maximum response.
DiscoverX™ cAmP Hunter eXpress VIPR1 CHO-K1 GPCR and GHRHR CHO-K1 GPCR assay kits were used. On the day before the assay, the DiscoverX™ cell lines were defrosted, plated into 384 well plates and allowed to incubate overnight. All the samples were diluted to 2 mM using 100% DMSO. The vials were sonicated and centrifuged to assure all peptides went into solution. The final volumes were small, 80-200 μl. An 80% purity and peptide content was assumed for all samples and dilutions were based on the molecular weights. On the day of the assay, the samples were diluted to 200 μM in water and then to 4 μM in DiscoverX™ assay buffer (supplemented with 0.1% BSA). Serial dilutions were performed on assay day, 16 dilutions from 1000 nM were run side by side in duplicate for each peptide for study. The assays were performed in the 384 well plates with the assistance of a CyBio™ Bi-Well 384 channel liquid handling robot. The samples were analyzed on a Tecan™ Ultra Evolution plate reader according to DiscoverX™ guidelines. The EC50 values were determined using GraphPad™ Prism software. The EC50 value is defined as the concentration of agonist that provokes a response halfway between the baseline and maximum response. (+=>25 nM; ++=>10-25 nM; +++=>1-10 nM; ++++=>0.1-1 nM; +++++=<0.1 nM). […]

Plasma compatibility = format: physicochemical
Description: The plasma compatibility of exemplary peptidomimetic macrocycles was also determined. Peptidomimetic macrocycles with a plasma compatability value (PC) that is greater than 0.1 were determined as being plasma compatible.

Row | Molecule | Selectivity (GHRHR) | pEC50 (GHRHR) | OD600 ([1]; 7 mg/mL) | OD600 ([1]; 10 mg/mL) | OD600 ([1]; 12 mg/mL) | OD600 ([1]; 16 mg/mL) | OD600 ([1]; 21 mg/mL) | OD600 ([1]; 27 mg/mL) | OD600 ([1]; 35 mg/mL) | OD600 ([1]; 46 mg/mL) | OD600 ([1]; 59 mg/mL) | OD600 ([1]; 77 mg/mL) | OD600 ([1]; 100 mg/mL) | pEC50 [2] | pEC50 [3] | Plasma Compatability (Plasma compatibility) | turbidity ([1]; up to 100 mg/mL)
1 | CCCC[C@H](NC(=O)[C@@H](NC(=O)[C@]1(C)CCCC=CCCC[C@](C)(NC(=O)[C@H](CCCNC(=N)N)NC(=O)[C@H](C)NC(=O)[C@H](CO)NC(=O)[C@H](CC(C)C)NC(=O)[C@H](CCC(N)=O)NC(=O)CNC(=O)[C@H](CC(C)C)NC(=O)[C@@H](NC(=O)[C@H](CCCCN)NC(=O)[C@H](CCCNC(=N)N)NC(=O)[C@H](Cc2ccc(O)cc2)NC(=O)[C@H](CO)NC(=O)[C@]2(C)CCCC=CCCC[C@](C)(NC(=O)[C@H](CC(=O)O)NC(=O)[C@@H](C)NC(=O)[C@@H](N)Cc3ccc(O)cc3)C(=O)N[C@@H]([C@@H](C)CC)C(=O)N[C@@H](Cc3ccccc3)C(=O)N[C@@H]([C@@H](C)O)C(=O)N2)C(C)C)C(=O)N[C@@H](CC(C)C)C(=O)N[C@@H](CC(C)C)C(=O)N[C@@H](CCC(N)=O)C(=O)N1)[C@@H](C)CC)C(=O)N[C@@H](CO)C(=O)N[C@@H](CCCNC(=N)N)C(N)=O [SP-3] (H-Y[dA]D[S5]IFT[S5]SYRKVLGQLSAR[S5]LLQ[S5]I[Nle]SR-NH2; staple 4-8, 21-25) | +++++ (+++++=>50) | 9.00 to 10.00 | 0.8 | 1.0 | 1.2 | 1.2 | 1.4 | 1.6 | 1.6 | 1.7 | 1.8 | 1.7 | 1.5 | 8.00 to 9.00 | 7.60 to 8.00 | 0.9 mg/mL | 
2 | SP-133: GHRH peptidomimetic macrocycle (YADAIFTASYRKALAQASARKALQDILSR; not fully specified; D-residues; non-natural residues; cyclised or stapled) | ++ (++=>5-15) | 8.00 to 9.00 | 0.0 | 0.0 | 0.0 | 0.0 | 0.0 | 0.0 | 0.0 | 0.0 | 0.0 | 0.0 | 0.0 |  | < 7.60 | >10 mg/mL | no turbidity
3 | CC[C@H](C)[C@H](NC(=O)[C@H](C)NC(=O)[C@H](CC(=O)O)NC(=O)[C@H](C)NC(=O)[C@@H](N)Cc1ccc(O)cc1)C(=O)N[C@@H](Cc1ccccc1)C(=O)N[C@H](C(=O)N[C@@H](CC(N)=O)C(=O)N[C@@H](CO)C(=O)N[C@@H](Cc1ccc(O)cc1)C(=O)N[C@@H](CCCNC(=N)N)C(=O)N[C@@H](CCCCN)C(=O)N[C@H](C(=O)N[C@@H](CC(C)C)C(=O)NCC(=O)N[C@@H](CCC(N)=O)C(=O)N[C@@H](CC(C)C)C(=O)N[C@@H](CO)C(=O)N[C@@H](C)C(=O)N[C@@H](CCCNC(=N)N)C(=O)N[C@@H](CCCCN)C(=O)N[C@@H](CC(C)C)C(=O)N[C@@H](CC(C)C)C(=O)N[C@@H](CCC(N)=O)C(=O)N[C@@H](CC(=O)O)C(=O)N[C@H](C(=O)N[C@@H](CCSC)C(=O)N[C@@H](CO)C(=O)N[C@@H](CCCNC(=N)N)C(N)=O)[C@@H](C)CC)C(C)C)[C@@H](C)O [SP-2, reference compound] |  |  |  |  |  |  |  |  |  |  |  |  |  |  | 9.00 to 10.00 | 4.6 mg/mL | 
4 | CCCC[C@H](NC(=O)[C@@H](NC(=O)[C@H](CC(=O)O)NC(=O)[C@H](CCC(N)=O)NC(=O)[C@H](CC(C)C)NC(=O)[C@H](C)NC(=O)[C@H](CCCCN)NC(=O)[C@H](CCCNC(=N)N)NC(=O)[C@H](C)NC(=O)[C@H](CO)NC(=O)[C@]1(C)CCCC=CCCC[C@](C)(NC(=O)[C@H](CCCCN)NC(=O)[C@H](CCCNC(=N)N)NC(=O)[C@H](Cc2ccc(O)cc2)NC(=O)[C@H](CO)NC(=O)[C@H](C)NC(=O)[C@@H](NC(=O)[C@H](Cc2ccccc2)NC(=O)[C@@H](NC(=O)[C@H](C)NC(=O)[C@H](CC(=O)O)NC(=O)[C@H](C)NC(=O)[C@H](Cc2ccc(O)cc2)NC)[C@@H](C)CC)[C@@H](C)O)C(=O)N[C@@H](CC(C)C)C(=O)N[C@@H](C)C(=O)N[C@@H](CCC(N)=O)C(=O)N1)[C@@H](C)CC)C(=O)N[C@@H](CO)C(=O)N[C@@H](CCCNC(=N)N)C(N)=O [SP-12] (H-[NMeY]ADAIFTASYRK[S5]LAQ[S5]SARKALQDI[Nle]SR-NH2; staple 13-17) | + (+=<5) | > 10.00 |  |  |  |  |  |  |  |  |  |  |  | ≥ 9.00 | > 10.00 | 1.6 mg/mL | 
5 | CCCC[C@H](NC(=O)[C@@H](NC(=O)[C@H](CC(=O)O)NC(=O)[C@H](CCC(N)=O)NC(=O)[C@H](CC(C)C)NC(=O)[C@H](C)NC(=O)[C@H](CCCCN)NC(=O)[C@H](CCCNC(=N)N)NC(=O)[C@H](C)NC(=O)[C@H](CO)NC(=O)[C@]1(C)CCCC=CCCC[C@](C)(NC(=O)[C@H](CCCCN)NC(=O)[C@H](CCCNC(=N)N)NC(=O)[C@H](Cc2ccc(O)cc2)NC(=O)[C@H](CO)NC(=O)[C@H](CCC(N)=O)NC(=O)[C@@H](NC(=O)[C@H](Cc2ccccc2)NC(=O)[C@@H](NC(=O)[C@H](C)NC(=O)[C@H](CC(=O)O)NC(=O)[C@@H](C)NC(=O)[C@H](Cc2ccc(O)cc2)NC)[C@@H](C)CC)[C@@H](C)O)C(=O)N[C@@H](CC(C)C)C(=O)N[C@@H](C)C(=O)N[C@@H](CCC(N)=O)C(=O)N1)[C@@H](C)CC)C(=O)N[C@@H](CO)C(=O)N[C@@H](CCCNC(=N)N)C(N)=O [SP-69] (H-[NMeY][dA]DAIFTQSYRK[S5]LAQ[S5]SARKALQDI[Nle]SR-NH2; staple 13-17) | + (+=<5) | 9.00 to 10.00 |  |  |  |  |  |  |  |  |  |  |  |  | 9.00 to 10.00 | 1.6 mg/mL | 
